Assay results from patent US3963707A, “Novel N-nitroso compounds, compositions containing such compounds, processes for their preparation and methods of treatment therewith, and novel intermediates” (Aktiebolaget Leo, priority 1973, dated 1976).

Tested on: Hepatoma AH 130
Assay: in vivo
Design: species or system SPF Wistar rats
Conditions: additional compounds, result in words
Source text: The high activity against tumours is further illustrated in these experiments by comparisons with known antitumour agents used in the therapy. The therapeutic indexes (T.I.), i.e. the ratios LD50/ED50, are in all comparisons much more favourable with the compounds of the present invention.
LD50 is the dose that caused a 50 percent lethality of the animals, ED50 is the dose that caused a 50 percent reduction of tumour size.
The experimental design and the interpretation of the results have been in accordance with the standards set by the CCNSC (Cancer Chemotherapy Reports, January 1959 and December 1962), and by the DR&D (Cancer Chemotherapy Reports, September 1972, Vol. 3, No. 2).
The way of administration is by the intraperitoneal route (i.p.) in each case.
Experimental animals: SPF Wistar rats.
Tumour implant: 5 × 10^6 tumour cells i.p.
Therapy: One injection i.p. on the day following implantation.
Termination: The animals are killed on the 8th day.
Evaluation: Weights of tumours of test animals compared with those of control animals.

For `Cc1ccc(N(C(=O)Oc2ccc3c(c2)CC[C@@H]2[C@@H]3CC[C@]3(C)C(=O)CC[C@@H]23)C(=O)N(CCCl)N=O)cc1` [estrone-3-/N^2-(4-methylphenyl)-N^4-(2-chloroethyl)-N^4-nitroso allophanate/], the anti-tumor activity was “exhibit anti-tumor activity”.

With `COc1ccc2c(c1)CC[C@@H]1[C@@H]2CC[C@]2(C)[C@@H](OC(=O)NC(=O)N(CCCl)N=O)CC[C@@H]12` [estradiol-3-methylether-17β-/N^4-(2-chloroethyl)-N^4-nitroso allophanate/] the anti-tumor activity was “exhibit anti-tumor activity”.

With `CC(=O)O[C@H]1C(=O)C[C@H]2[C@@H]3CCc4cc(OC(=O)N(CCCl)N=O)ccc4[C@H]3CC[C@]12C` [estra-1,3,5(10)-triene-3,17β-diol-16-one,17β-acetate-3-N-(2-chloroethyl)-N-nitroso carbamate] the anti-tumor activity was “exhibit anti-tumor activity”.

With `COc1ccc2c(c1)CC[C@@H]1[C@@H]2CC[C@]2(C)[C@@H](OC(=O)N(C)C(=O)N(CCCl)N=O)CC[C@@H]12` [estradiol-3-methylether-17β-/N^2-methyl-N^4-(2-chloroethyl)-N^4-nitroso allophanate] the anti-tumor activity was “exhibit anti-tumor activity”.

`CC(=O)[C@H]1CC[C@H]2[C@@H]3CC=C4C[C@@H](OC(=O)N(C)C(=O)N(CCCl)N=O)CC[C@]4(C)[C@H]3CC[C@]12C` [pregnenolone-3β-/N^2-methyl-N^4-(2-chloroethyl)-N^4-nitroso allophanate/] was tested, and the anti-tumor activity was “exhibit anti-tumor activity”.

With `C#C[C@]1(OC(C)=O)CC[C@H]2[C@@H]3CCC4=C[C@@H](OC(=O)N(C)C(=O)N(CCCl)N=O)CC[C@@H]4[C@H]3CC[C@@]21C` [ethynodiol-17β-acetate-3β-/N^2-methyl-N^4-(2-chloroethyl)-N^4-nitroso allophanate/] the anti-tumor activity was “exhibit anti-tumor activity”.

In the case of `CC(C)(C)C(=O)OCC(=O)[C@@]1(O)CC[C@H]2[C@@H]3CCC4=CC(=O)C=C[C@]4(C)[C@H]3[C@@H](OC(=O)N(CCCl)N=O)C[C@@]21C` [prednisolone-11β-/N-(2-chloroethyl)-N-nitroso carbamate/-21-pivalate], the anti-tumor activity is reported as “exhibit anti-tumor activity”.

For `CC(=O)OCC(=O)[C@H]1CC[C@H]2[C@@H]3CCC4=CC(=O)CC[C@]4(C)[C@H]3[C@@H](OC(=O)N(CCCl)N=O)C[C@]12C` [corticosterone-21-acetate-11β-N-(2-chloroethyl)-N-nitroso carbamate], the anti-tumor activity was “exhibit anti-tumor activity”.

With `C#C[C@]1(OC(=O)N(CCCl)N=O)CC[C@H]2[C@@H]3CCC4=C[C@@H](OP(=O)(O)Oc5ccccc5)CC[C@@H]4[C@H]3CC[C@@]21C` [ethynodiol-17β-N-(2-chloroethyl)-N-nitroso carbamate-3β-phenylhydrogen phosphate] the anti-tumor activity was “exhibit anti-tumor activity”.

In the case of `CC1CC2(C)C(CCC3C2CCC2(C)C(OC(=O)N(CCCl)N=O)CCC32)CC1=O` (stereo not drawn) [2α-methyl-dihydrotestosterone-17β-N-(2-chloroethyl)-N-nitroso carbamate], the anti-tumor activity is reported as “exhibit anti-tumor activity”.

For `CC1CCC(N(C(=O)Oc2ccc3c(c2)CC[C@@H]2[C@@H]3CC[C@]3(C)C(=O)CC[C@@H]23)C(=O)N(CCCl)N=O)CC1` (stereo partly shown) [estrone-3-/N^2-(4-methylcyclohexyl)-N^4-(2-chloroethyl)-N^4-nitroso allophanate/], the anti-tumor activity was “exhibit anti-tumor activity”.

`C[C@]12CC[C@H]3[C@@H](CC=C4C[C@@H](OC(=O)N(CCCl)N=O)CC[C@@]43C)[C@@H]1CC[C@@H]2OS(=O)(=O)O` [androstenediol-3β-/N-(2-chloroethyl)-N-nitroso carbamate/-17β-sodium sulphate] was tested, and the anti-tumor activity was “exhibit anti-tumor activity”.

In the case of `C#C[C@]1(OC(=O)N(CCCl)N=O)CC[C@H]2[C@@H]3CCC4=C[C@@H](OP(=O)(O)OCC)CC[C@@H]4[C@H]3CC[C@@]21C` [ethynodiol-17β-N-(2-chloroethyl)-N-nitroso carbamate-3β-ethyl hydrogen phosphate], the anti-tumor activity is reported as “exhibit anti-tumor activity”.

For `CN(C(=O)O[C@H]1CC[C@@]2(C)C(=CC[C@H]3[C@@H]4CC[C@H](OP(=O)(O)O)[C@@]4(C)CC[C@@H]32)C1)C(=O)N(CCCl)N=O` [androstenediol-3β-/N^2-methyl-N^4-(2-chloroethyl)-N^4 nitroso allophanate/-17β-dihydrogen phosphate], the anti-tumor activity was “exhibit anti-tumor activity”.

With `C[C@]12C=CC(=O)C=C1CC[C@@H]1[C@@H]2[C@@H](OC(=O)N(CCCl)N=O)C[C@@]2(C)[C@H]1CC[C@]2(O)C(=O)CO` [prednisolone-11β-N-(2-chloroethyl)-N-nitroso carbamate] the anti-tumor activity was “exhibit anti-tumor activity”.

For `CC(=O)O[C@H]1CC[C@H]2[C@@H]3CCc4cc(OC(=O)N(C)C(=O)N(CCCl)N=O)ccc4[C@H]3CC[C@]12C` [estradiol-17β-acetate-3-/N^2-methyl-N^ 4-(2-chloroethyl)-N^4-nitroso allophanate/], the anti-tumor activity was “exhibit anti-tumor activity”.

With `CC(C)CCC[C@@H](C)[C@H]1CC[C@H]2[C@@H]3CC=C4C[C@@H](OC(=O)N(C)C(=O)N(CCCl)N=O)CC[C@]4(C)[C@H]3CC[C@]12C` [cholesterol-3β-/N^2-methyl-N^4-(2-chloroethyl)-N^4-nitroso allophanate/] the anti-tumor activity was “exhibit anti-tumor activity”.

In the case of `C#C[C@]1(OC(C)=O)CC[C@H]2[C@@H]3CCC4=C[C@@H](OC(=O)N(CCF)N=O)CC[C@@H]4[C@H]3CC[C@@]21C` [ethynodiol-17β-acetate-3β-N-(2-fluoroethyl)-N-nitroso carbamate], the anti-tumor activity is reported as “exhibit anti-tumor activity”.

With `C[C@]12CC[C@H]3[C@@H](CC=C4C[C@@H](OC(=O)N(CCCl)N=O)CC[C@@]43C)[C@@H]1CC[C@@H]2OC(=O)c1ccccc1` [androstenediol-17β-benzoate-3β-N-(2-chloroethyl)-N-nitroso carbamate] the anti-tumor activity was “exhibit anti-tumor activity”.

With `CC(=O)O[C@H]1CC[C@H]2[C@@H]3CCc4cc(OC(=O)N(CCF)N=O)ccc4[C@H]3CC[C@]12C` [estradiol-17β-acetate-3-N-(2-fluoroethyl)-N-nitroso carbamate] the anti-tumor activity was “exhibit anti-tumor activity”.

For `CCOP(=O)(O)O[C@H]1CC[C@H]2[C@@H]3CC=C4C[C@@H](OC(=O)N(CCCl)N=O)CC[C@]4(C)[C@H]3CC[C@]12C` [androstenediol-3β-/N-(2-chloroethyl)-N-nitroso carbamate/-17β-ethyl hydrogen phosphate], the anti-tumor activity was “exhibit anti-tumor activity”.

`C[C@]12CC[C@@H]3c4ccc(OC(=O)N(CCCl)N=O)cc4CC[C@H]3[C@@H]1CC[C@@H]2OP(=O)(O)Oc1ccccc1` [estradiol-17β-phenyl hydrogen phosphate-3-N-(2-chloroethyl)-N-nitroso carbamate] was tested, and the anti-tumor activity was “exhibit anti-tumor activity”.

`C[C@]12CCC(=O)C=C1CC[C@H]1[C@@H]3CC[C@](C)(OC(=O)N(CCCl)N=O)[C@@]3(C)C[C@H](O)[C@@]12F` [9α-fluoro-11β-hydroxy-17α-methyltestosterone-17β-N-(2-chloroethyl)-N-nitroso carbamate] was tested, and the anti-tumor activity was “exhibit anti-tumor activity”.

For `C[C@@]12C=CC[C@H]1[C@@H]1CCc3cc(OC(=O)N(CCCl)N=O)ccc3[C@H]1CC2` [estra-1,3,5(10),16-tetraen-3-ol,3-N-(2-chloroethyl)-N-nitroso carbamate], the anti-tumor activity was “exhibit anti-tumor activity”.

`C#C[C@]1(OC(=O)N(CCCl)N=O)CC[C@H]2[C@@H]3CCC4=C[C@@H](OC(=O)CCCCCC)CC[C@@H]4[C@H]3CC[C@@]21C` [ethynodiol-17β-N-(2-chloroethyl)-N-nitroso carbamate-3β-oenanthate] was tested, and the anti-tumor activity was “exhibit anti-tumor activity”.

In the case of `CC(=O)[C@@]1(O)CC[C@H]2[C@@H]3C=C(Cl)C4=C[C@@H](OC(=O)N(CCCl)N=O)CC[C@]4(C)[C@H]3CC[C@@]21C` [6-chloro-pregna-4,6-diene-3β,17α-diol-20-one,3β-N-(2-chloroethyl)-N-nitroso carbamate], the anti-tumor activity is reported as “exhibit anti-tumor activity”.

`CC(C)CCC[C@@H](C)[C@H]1CC[C@H]2[C@@H]3CC=C4C[C@@H](OC(=O)N(CCCl)C(=O)N(CCCl)N=O)CC[C@]4(C)[C@H]3CC[C@]12C` [cholesterol-3β-/N^2,N^4-bis (2-chloroethyl)-N^4-nitroso allophanate/] was tested, and the anti-tumor activity was “exhibit anti-tumor activity”.

With `C#C[C@]1(OC(C)=O)CC[C@H]2[C@@H]3CCC4=C[C@@H](OC(=O)N(C(=O)N(CCCl)N=O)C5CCC(C)CC5)CC[C@@H]4[C@H]3CC[C@@]21C` (stereo partly drawn) [ethynodiol-17β-acetate-3β-/N^2-(4-methylcyclohexyl)-N^4-(2-chloroethyl)-N^4-nitroso allophanate/] the anti-tumor activity was “exhibit anti-tumor activity”.

In the case of `CC(C)CCC[C@@H](C)[C@H]1CC[C@H]2[C@@H]3CC=C4C[C@@H](OC(=O)N(CCF)N=O)CC[C@]4(C)[C@H]3CC[C@]12C` [cholesterol-3β-N-(2-fluoroethyl)-N-nitroso carbamate], the anti-tumor activity is reported as “exhibit anti-tumor activity”.

In the case of `CC(C)[C@@H](C)/C=C/[C@@H](C)[C@H]1CC[C@H]2C3=CC=C4C[C@@H](OC(=O)N(CCCl)N=O)CC[C@]4(C)[C@H]3CC[C@]12C` [ergosterol-3β-N-(2-chloroethyl)-N-nitroso carbamate], the anti-tumor activity is reported as “exhibit anti-tumor activity”.

In the case of `C[C@]12CC[C@H]3[C@@H](CC=C4C[C@@H](OC(=O)N(CCCl)N=O)CC[C@@]43C)[C@@H]1CC[C@@H]2OP(=O)(O)O` [androstenediol-3β-/N-(2-chloroethyl)-N-nitroso carbamate/-17β-dihydrogen phosphate], the anti-tumor activity is reported as “exhibit anti-tumor activity”.
